{
  "source": "patent US20090010886A1",
  "about": "“Method for the Treatment of Myeloproliferative Diseases Using(+)-2-[1-(3-Ethoxy-4-Methoxyphenyl)-2- Methylsulfonylethyl]-4- Acetylaminoisoindoline-1,3- Dione” (CELGENE CORPORATION, priority 2004, published 2009)",
  "test": "cardiovascular and respiratory function in anesthetized dogs (safety pharmacology)",
  "type": "in vivo",
  "settings": "anesthetized Beagle dogs, three ascending doses 400, 800 and 1,200 mg/kg/day, infusion through the jugular vein",
  "protocol": "The pharmacological properties of 3-(3,4-dimethoxy-phenyl)-3-(1-oxo-1,3-dihydro-isoindol-2-yl)-propionamide, including activity comparisons with thalidomide, are characterized in in vitro studies. Studies examine the effects of 3-(3,4-dimethoxy-phenyl)-3-(1-oxo-1,3-dihydro-isoindol-2-yl)-propionamide on the production of various cytokines. In addition, a safety pharmacology study of 3-(3,4-dimethoxy-phenyl)-3-(1-oxo-1,3-dihydro-isoindol-2-yl)-propionamide is conducted in dogs and the effects of the compound on ECG parameters are examined further as part of three repeat-dose toxicity studies in primates.\nThe effects of 3-(3,4-dimethoxy-phenyl)-3-(1-oxo-1,3-dihydro-isoindol-2-yl)-propionamide on cardiovascular and respiratory function are investigated in anesthetized dogs. Two groups of Beagle dogs (2/sex/group) are used. One group receives three doses of vehicle only and the other receives three ascending doses of 3-(3,4-dimethoxy-phenyl)-3-(1-oxo-1,3-dihydro-isoindol-2-yl)-propionamide (400, 800, and 1,200 mg/kg/day). In all cases, doses of 3-(3,4-dimethoxy-phenyl)-3-(1-oxo-1,3-dihydro-isoindol-2-yl)-propionamide or vehicle are successively administered via infusion through the jugular vein separated by intervals of at least 30 minutes. […]",
  "data": [
    {"compound": "COc1ccc(C(CC(N)=O)N2Cc3ccccc3C2=O)cc1OC", "note": "(stereo not shown) [3-(3,4-Dimethoxy-phenyl)-3-(1-oxo-1,3-dihydro-isoindol-2-yl)-propionamide]", "values": [
      {"measurement": "cardiovascular and respiratory changes compared to the vehicle control group", "result": "minimal"}
    ]}
  ]
}
